US7781580B2, “Stilbene derivatives as new cancer therapeutic agents” (Virginia Commonwealth University, priority 2007, dated 2010)

Experiments:
Format in all cases: cell-based
Chk2−/− cells = assay: cell cycle analysis, Chk2-/- MDA-MB231 derivative
Description: (§1) Cells were treated with various concentrations of stilbene 4a or CA4 for 16 hours followed by PI staining and FACscan analysis. […] A unique feature of stilbene 4a was noted when cells were treated with 30 nM.
(§2) Due to the structural similarity between stilbene 4a and CA4, we investigated the difference in the biological activity of these two compounds in MDA-MB231 breast cancer cells and their Chk2−/− derivatives. […] MDA-MB231 cells were treated with 10 nM stilbene 4a or 1 nM CA4. […] However, a difference in cell cycle change was observed following treatment with 30 nM of stilbene 4a versus 3 nM of CA4. […] This was also the case for cells treated with 100 nM stilbene 4a. A significant subG1/0 population was also noted. […] One possible effect could be a DNA damage response, which is a common mechanism of multiple chemotherapeutic agents but not one of pure microtubule-interfering agents such a paclitaxel or vincristine. […] We then obtained conditional Chk1−/− and Chk2−/− cells, which were derived from the same MDA-MB231 cells for the same flow cytometry analysis. […] In contrast, Chk2−/− cells were more sensitive to stilbene 4a. […] This mechanism is not obvious in higher drug concentrations at which the G2 arrest from microtubule interference is dominant. Therefore, in addition to their microtubule interfering effect, stilbenes have another mechanism to induce cell death. Thus, the use of a Chk2 inhibitor in combination with stilbenes may be a viable approach to enhancing the beneficial therapeutic effects of stilbenes.

UCI101 cells = assay: immunofluorescent staining of tubulin, UCI101; details: CA4 10 nM, stilbene 4a 100 nM, 5b 3 μM; 16 hours
Source text: Nuclei were stained with DAPI.

[1] = tested on: UCI101 ovarian cancer cells; assay: Alamar Blue cell growth inhibition, UCI101; details: UCI101, 48 hours
Summary of the method: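 UCI101 cells at 50% confluence treated 48 h in triplicate with compound (0–10 μM series) or 0.1% DMSO vehicle as 100% control. Alamar Blue added at 1/10 volume for 2 h; absorbance read at 570 and 600 nm, percent growth inhibition from the manufacturer's formula.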

[2] = tested on: UCI101 ovarian cancer cells; assay: Western blot of signal transduction events, UCI101
Summary of the method: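 UCI101 cells exposed to 0.1 μM compound for 0, 4, 8, 16 and 36 h, then harvested and analysed by Western blot. Probes covered G2-M regulators Cdc2, Cdc25c and BubR1, plus Akt phosphorylation.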

[3] = tested on: MDA-MB231 breast cancer cells; assay: cell cycle analysis, MDA-MB231; details: 16 hours
Description: as §1, §2

[4] = tested on: human umbilical vein endothelial cells (HUVECs); assay: HUVEC flow cytometry and tubulin staining; details: 30 nM, 16 hours
Description: (a) Flow cytometry analysis. HUVECs were treated with 30 nM of stilbene 4a for 16 hours followed by staining with PI and subjected to flow cytometry analysis. A large subG0/1 population, representing apoptotic cells, appeared along with reverse of the G1/G2 ratio. (b) Immunofluorescent staining of the HUVECs with antibody against tubulin. Nuclei were counter-stained with DAPI. Stilbene 4a disrupted microtubules at a concentration of 30 nM or higher. Stilbene 4c disrupted microtubules at 100 nM.
In order to establish that stilbenes suppress tumor perfusion by damaging tumor endothelial cells, we first incubated human vascular endothelial cells (HUVECs) with various concentrations of stilbenes in vitro. After 24 hours of incubation, cells were processed for flow cytometry analysis with propidium iodide staining. Cells were also fixed with 2% paraformaldehyde and stained with anti-tubulin antibody to examine tubulin disruption and with DAPI to analyze nuclear fragmentation.

## COc1cc(/C=C\c2ccc(OC)c(N)c2)cc(OC)c1 [4a, (Z)-5-[2-(3,5-Dimethoxy-phenyl)-vinyl]-2-methoxy-phenylamine]
Chk2−/− cells; 10 nM
  cell cycle change at 10 nM: a significant subG1/0 population developed without G2 arrest
Chk2−/− cells; 16 hours
  change of effective concentration versus MDA-MB231: decreased by three fold
UCI101 cells
  microtubule pattern: partial disruption of microtubules
[1]
  relative potency / activity: about equal in their potency
[2]; 0.1 μM
  phosphorylation of Stat3: transient increase in phosphorylation at 4 and 8 hours
[2]; 0.1 μM, 16 hours
  phosphorylation of Cdc2 at Tyr15: decreased dramatically
[2]; 36 hours
  phosphorylation of Chk1: increased uniquely at 36 hours
[3]; 30 nM
  cell cycle change at 30 nM: induced some degree of G2 arrest, but the ratio of G1/G2 did not reverse
[3]
  cell cycle change at 10 nM stilbene 4a or 1 nM CA4: No change was observed
[4]
  apoptosis of HUVECs (flow cytometry): induced a significant apoptotic population of subG0/1 cells
